± gives the standard deviation of the averaged measurements.
Columns and labels:
[1] = compound: CC(=O)O[C@H]1C(=O)[C@@]2(C)[C@H]([C@H](OC(=O)c3ccccc3)[C@]3(O)C[C@H](OC(=O)[C@H](O)[C@@H](NC(=O)c4ccccc4)c4ccccc4)C(C)=C1C3(C)C)[C@]1(OC(C)=O)CO[C@@H]1C[C@@H]2O [PACLITAXEL]; experiment: surviving fraction relative to DMSO-only wells; higher = less growth inhibition; details: exposure time: 5 days
Outline: (§1)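 Viability was scored with CellTiter-Glo luminescence and normalised to the median of DMSO-only wells as surviving fraction. Beforehand, log-phase tumour cell lines were seeded at 250–500 cells per well in 384-well plates, allowed 24 hours, and exposed continuously for five days to inhibitors at 0.5, 1, 5, 10, 50, 100, 500 and 1000 nM. Only lines whose three screens gave replicate Pearson r >0.7 and median Z' >0.3 were kept.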

[2] = compound: COCC[n+]1c2c(n(Cc3cnccn3)c1C)C(=O)c1ccccc1C2=O [YM155]; experiment: as above; details: exposure time: 5 days
Outline: as §1

Test System	surviving fraction ([1]; 0.5 nM)	surviving fraction ([1]; 1 nM)	surviving fraction ([1]; 5 nM)	surviving fraction ([1]; 10 nM)	surviving fraction ([1]; 50 nM)	surviving fraction ([1]; 100 nM)	surviving fraction ([1]; 500 nM)	surviving fraction ([1]; 1000 nM)	surviving fraction ([2]; 0.5 nM)	surviving fraction ([2]; 1 nM)	surviving fraction ([2]; 5 nM)	surviving fraction ([2]; 10 nM)	surviving fraction ([2]; 50 nM)	surviving fraction ([2]; 100 nM)	surviving fraction ([2]; 500 nM)	surviving fraction ([2]; 1000 nM)
MFM223 BREAST	0.948 ± 0.056	0.736 ± 0.066	0.295 ± 0.026	0.129 ± 0.012	0.0873 ± 0.012	0.0663 ± 0.003	0.062 ± 0.0051	0.0632 ± 0.0075	0.966 ± 0.082	0.954 ± 0.19	0.259 ± 0.2	0.209 ± 0.15	0.0798 ± 0.051	0.085 ± 0.085	0.116 ± 0.16	0.138 ± 0.18
HS578T BREAST	0.428 ± 0.043	0.246 ± 0.019	0.127 ± 0.0038	0.108 ± 0.011	0.126 ± 0.013	0.109 ± 0.0027	0.11 ± 0.01	0.101 ± 0.01	1.03 ± 0.14	1.06 ± 0.19	0.993 ± 0.19	1.06 ± 0.082	0.739 ± 0.18	0.809 ± 0.066	0.274 ± 0.067	0.154 ± 0.027
BT20 BREAST	0.956 ± 0.11	0.718 ± 0.026	0.0893 ± 0.0055	0.0667 ± 0.0057	0.0593 ± 0.0063	0.058 ± 0.01	0.0513 ± 0.0049	0.0587 ± 0.011	0.907 ± 0.077	0.875 ± 0.089	0.0757 ± 0.0075	0.0613 ± 0.006	0.028 ± 0.0017	0.025 ± 0.0027	0.019 ± 0.002	0.027 ± 0.002
SUM159 BREAST	1.13 ± 0.24	1.1 ± 0.15	0.57 ± 0.024	0.179 ± 0.0045	0.12 ± 0.0095	0.107 ± 0.0015	0.124 ± 0.0017	0.137 ± 0.02	0.994 ± 0.042	1.02 ± 0.032	0.536 ± 0.072	0.537 ± 0.057	0.069 ± 0.0098	0.0383 ± 0.0015	0.0217 ± 0.00058	0.0273 ± 0.00058
SG27 HEADNECK	0.88 ± 0.066	0.899 ± 0.062	0.937 ± 0.032	0.935 ± 0.056	0.888 ± 0.1	0.911 ± 0.097	1.01 ± 0.04	0.849 ± 0.068	1.13 ± 0.13	1.05 ± 0.092	0.813 ± 0.13	0.575 ± 0.066	0.105 ± 0.035	0.0347 ± 0.0038	0.0367 ± 0.02	0.048 ± 0.017
VCAP PROSTATE	0.846 ± 0.11	0.666 ± 0.052	0.179 ± 0.038	0.0997 ± 0.0076	0.077 ± 0.015	0.0693 ± 0.0068	0.0677 ± 0.022	0.0697 ± 0.0086	0.826 ± 0.049	0.9053 ± 0.0074	0.34 ± 0.025	0.286 ± 0.051	0.0533 ± 0.027	0.035 ± 0.007	0.0293 ± 0.0067	0.0617 ± 0.03
HCC1806 BREAST	0.89 ± 0.17	0.1833 ± 0.0015	0.0437 ± 0.0038	0.0357 ± 0.0032	0.0307 ± 0.0057	0.0207 ± 0.0029	0.0253 ± 0.0031	0.021 ± 0.0017	1.04 ± 0.077	1.08 ± 0.15	0.308 ± 0.016	0.284 ± 0.01	0.064 ± 0.0027	0.05 ± 0.0044	0.024	0.0257 ± 0.0015
SAOS2 BONE	1.08 ± 0.043	1.06 ± 0.018	0.46 ± 0.043	0.165 ± 0.013	0.0527 ± 0.004	0.0527 ± 0.00058	0.0447 ± 0.0063	0.0557 ± 0.0063	1.16 ± 0.021	1.1 ± 0.097	0.39 ± 0.035	0.237 ± 0.0095	0.053 ± 0.0069	0.0327 ± 0.006	0.0223 ± 0.00058	0.0293 ± 0.00058
HS57T BREAST	0.773 ± 0.045	0.478 ± 0.058	0.0727 ± 0.0025	0.0563 ± 0.0021	0.0457 ± 0.0042	0.0463 ± 0.0065	0.0353 ± 0.0021	0.0403 ± 0.007	0.919 ± 0.02	0.923 ± 0.056	0.729 ± 0.058	0.799 ± 0.1	0.287 ± 0.029	0.182 ± 0.013	0.0527 ± 0.0015	0.0473 ± 0.0047
SG43 HEADNECK	0.793 ± 0.2	0.849 ± 0.078	0.588 ± 0.022	0.619 ± 0.067	0.471 ± 0.0079	0.467 ± 0.091	0.477 ± 0.07	0.433 ± 0.038	1.18 ± 0.4	1.02 ± 0.032	0.744 ± 0.088	0.81 ± 0.15	0.783 ± 0.052	0.705 ± 0.084	0.159 ± 0.058	0.0523 ± 0.0084
SIHA CERVIX	0.988 ± 0.031	0.948 ± 0.04	0.238 ± 0.029	0.136 ± 0.014	0.0897 ± 0.0031	0.0817 ± 0.004	0.101 ± 0.0087	0.0943 ± 0.014	0.917 ± 0.056	0.938 ± 0.069	0.977 ± 0.049	0.735 ± 0.011	0.0433 ± 0.0055	0.022 ± 0.002	0.0197 ± 0.00058	0.0243 ± 0.0015
KPD BONE	0.909 ± 0.093	0.889 ± 0.062	0.387 ± 0.029	0.365 ± 0.044	0.338 ± 0.015	0.315 ± 0.025	0.327 ± 0.011	0.313 ± 0.026	0.966 ± 0.037	0.995 ± 0.068	0.519 ± 0.033	0.266 ± 0.046	0.0473 ± 0.0081	0.0347 ± 0.004	0.0237 ± 0.0025	0.0257 ± 0.0021
YAMATO SYNOVIAL	1.04 ± 0.16	0.891 ± 0.036	0.488 ± 0.069	0.464 ± 0.043	0.377 ± 0.012	0.359 ± 0.021	0.346 ± 0.0061	0.426 ± 0.016	0.656 ± 0.066	0.874 ± 0.067	0.39 ± 0.039	0.29 ± 0.027	0.229 ± 0.014	0.206 ± 0.0017	0.191 ± 0.015	0.267 ± 0.016
SCC003 HEADNECK	0.945 ± 0.11	0.805 ± 0.075	0.324 ± 0.037	0.27 ± 0.028	0.192 ± 0.01	0.196 ± 0.031	0.179 ± 0.021	0.166 ± 0.018	1.072 ± 0.0061	1.02 ± 0.071	0.82 ± 0.12	0.502 ± 0.14	0.086 ± 0.0066	0.052 ± 0.0046	0.024	0.025 ± 0.0017
CAL72 BONE	0.876 ± 0.061	0.459 ± 0.078	0.386 ± 0.047	0.297 ± 0.032	0.191 ± 0.018	0.135 ± 0.031	0.112 ± 0.0096	0.123 ± 0.025	1.05 ± 0.081	1.01 ± 0.097	0.347 ± 0.082	0.202 ± 0.034	0.058 ± 0.005	0.0473 ± 0.0047	0.0423 ± 0.0029	0.054 ± 0.0044
CCK81 LARGE INTESTINE	–	–	–	–	–	–	–	–	0.854 ± 0.1	0.82 ± 0.03	0.735 ± 0.076	0.745 ± 0.021	0.674 ± 0.022	0.798 ± 0.073	0.719 ± 0.036	0.801 ± 0.13
